For data set [1] the following is noted: in vivo; cited from earlier work.
In data set [2] the test system is NMDA. The following applies: in words; cited from earlier work.
The test system of data set [3] is high-affinity PCP binding site in the NMDA-associated ion channel. Particulars: cited from earlier work.
For a further data set, the system named is cerebral ischemia. Particulars: in vivo; cited from earlier work.
The test system of data set [4] is NMDA. The data set can be described thus: Inhibition of NMDA-induced lethality in mice. The following applies: for Efficacy Ratio (ED50/TD50): NMDA-induced lethality vs traction reflex deficit (ataxia); for Efficacy Ratio (ED50/TD50) / ED50 Inhibition of NMDA-Induced Lethality / Percent of animals which survived at the dose indicated: ip, mice; for ED50 Inhibition of NMDA-Induced Lethality: dose required to produce 50% survival rate, NMDA 195 mg/kg i.p. 30 min after compound; for Percent of animals which survived at the dose indicated: NMDA 195 mg/kg i.p. Type of data set: in vivo, male Swiss-albino mice (CD-1 strain). As to the method:
The mice were pretreated with the representative test compounds followed thirty minutes later with NMDA (195 mg/kg, i.p., the ED90 dose for generalized myoclonus). The mice were then observed for 30 minutes, noting the latency of onset of generalized myoclonus (uncontrollable hind leg scratching or limbs and/or torso muscle jerking with loss of […] reflex) and death. From the latter, the ED50 for survival is determined. In this standard experimental test procedure, the specific compounds tested and their activity, which representatively establish the activity for all the compounds herein, are presented in Table I as follows:
(§1) NMDA-Induced Lethality and Traction Reflex Deficit (Ataxia)
Of Lethality Reflex Deficit
*As measured in mice. Defined as the dose required to produce 50% surviva
#Percent of animals which survived at the dose indicated.

In data set [5] the target is NMDA-associated ion channel. The data set can be described thus: Displacement of [3H]-TCP from its binding site in rat frontal cortex homogenates. The following applies: functional binding assay without added spermidine. From the text: Ability to Displace [^3 H]-TCP from the NMDA Ion Channel
*Functional binding assay without added spermidine.
For orientation: Displacement assays read how much labelled ligand stays bound in the presence of the test substance.

A further data set has as its system NMDA-induced responses. Particulars: cited from earlier work.
For data set [6] the following is noted: cited from earlier work.
Data set [7] is described as follows: Traction reflex deficit (ataxia) in mice. Particulars: mouse, in vivo, ip, dose which produced the deficit in 50% of animals tested.
From the text: In fact, the separation between a compound's NMDA-antagonist activity and ataxic activity (often expressed as an "efficacy ratio" of the ED50 's of these two activities) has been extensively used to evaluate its therapeutic usefulness versus its liabilities. In our studies, PCP is approximately equipotent in its abilities to antagonize NMDA-induced lethality in mice and cause ataxia as measured by the traction reflex deficit model, giving an efficacy ratio (ED50 /TD50) of approximately 1.4 (Table 1, infra).
as §1
^@ As measured in mice. Defined as the dose which produced the defici
in 50% of animals tested.

The structures appear in SMILES notation.

As to `C[C@]12N[C@H](Cc3ccccc31)c1ccccc12` [MK-801], the “Drug discrimination: generalization for PCP” value in [1] is “generalizes for PCP”. For the same compound, in the data set with NMDA [2], the “Antagonism of NMDA-induced lethality (background statement)” value is “antagonizes NMDA-induced lethality”. Moreover, the “Competition for the high-affinity PCP binding site” value in [3] was “competes for the high-affinity PCP binding site”. Besides, in the data set on cerebral ischemia, the “Protection against cell death in cerebral ischemia models” value is listed as “protects against cell death in cerebral ischemia models”. Also, in the data set with NMDA [4], the “Efficacy Ratio (ED50/TD50)” value is listed as 0.9 and the “ED50 Inhibition of NMDA-Induced Lethality” value (shortened to “ED50 Inhibition”) is 0.19 mg/kg. The IC50 (as a rule, the concentration that gives 50% inhibition) in data set [5] came to 0.0026 µM.
Turning to `CC12CNC(Cc3ccc(Cl)cc31)c1ccccc12` (stereo not shown) [Example 3, 10,11-Dihydro-3-chloro-5-methyl-10,5-(iminomethano)-5H-dibenzo[a,d]cycloheptene], the “Percent of animals which survived at the dose indicated” value (“Percent of animals which survived” below) with NMDA [4] (5 mg/kg) stood at 90%.
As for `c1ccc(C2(N3CCCCC3)CCCCC2)cc1` [PCP, phencyclidine], the “Antagonism of NMDA-induced responses” value in the data set on NMDA-induced responses is on record as “noncompetitively antagonize NMDA-induced responses”. In the data set with NMDA [2], the “Antagonism of NMDA-induced lethality (background statement)” value is recorded as “antagonizes NMDA-induced lethality”. For the same compound, in the data set with cerebral ischemia, the “Protection against cell death in cerebral ischemia models” value is recorded as “protects against cell death in cerebral ischemia models”. In the data set with NMDA [4], the “ED50 Inhibition” value was determined as 1.9 mg/kg. Besides, the IC50 in data set [5] came to 0.0282 µM.
As to `CC12CNC(Cc3ccc(F)cc31)c1ccccc12` (stereo not shown) [Example 4, 10,11-Dihydro-3-fluoro-5-methyl-10,5-(iminomethano)-5H -dibenzo[a,d]cycloheptene], the “Percent of animals which survived” value in the data set with NMDA [4] (5 mg/kg) is recorded as 90%.
For `CN1CC[C@@]23CCCC[C@@H]2[C@@H]1Cc1ccc(O)cc13` [Dextrorphan, dextrorphan], the “ED50 Inhibition” value with NMDA [4] stood at 13 mg/kg.
As for `COc1ccc2c(c1)[C@]13CCCC[C@@H]1[C@H](C2)N(C)CC3` [Dextromethorphan], the “Antagonism of NMDA-induced responses” value with NMDA-induced responses is “noncompetitively antagonizes NMDA-induced responses”. For the same compound, in the data set on NMDA [4], the “Efficacy Ratio (ED50/TD50)” value worked out at 2.1 and the “ED50 Inhibition” value worked out at 21 mg/kg. For the same compound, the “Potency in antagonizing NMDA-induced lethality vs PCP and MK-801” value in the data set with NMDA [4] (in words) is “not as potent as PCP and MK-801”. In [6], the Metabolism in man entry was “metabolized to dextrorphan in man”. For the same compound, the IC50 in [5] amounted to 0.745 µM.
Regarding `CC12CNC(Cc3ccc(Br)cc31)c1ccccc12` (single isomer, unassigned; (-)) [Example 5, (-)-10,11-Dihydro-3-bromo-5-methyl-10,5-(iminomethano)-5H -dibenzo[a,d]cycloheptene], the “Percent of animals which survived” value in the data set with NMDA [4] (5 mg/kg) is on record as 40%. Further, the IC50 in [5] turned out to be 1.01 µM.
As to `CC12CNC(Cc3ccc(Br)cc31)c1ccccc12` (single isomer, unassigned; (+)) [Example 6, (+)-10,11-Dihydro-3-bromo-5-methyl-10,5-(iminomethano)-5H -dibenzo[a,d]cycloheptene], in the data set with NMDA [4], the “ED50 Inhibition” value turned out to be 2.2 mg/kg. Moreover, the IC50 in data set [5] was 0.089 µM.
With `CC12CNC(Cc3ccc(Br)cc31)c1ccccc12` (stereo not shown) [Example 1, 10.11-Dihydro-3-bromo-5-methyl-10,5-(iminomethano)-5H -dibenzo[a,d]cycloheptene], the TD50 (usually the dose at which the toxic effect under study appears in half of the subjects) in [7] was 14.7 mg/kg. Besides, in the data set with NMDA [4], the “Efficacy Ratio (ED50/TD50)” value is on record as 3.2 and the “ED50 Inhibition” value was 4.6 mg/kg. The same compound displayed an IC50 in data set [5] of 0.192 µM.
As to `CC12CNC(Cc3ccccc31)c1ccc(Br)cc12` (stereo not shown) [Example 2, 10,11-Dihydro-7-bromo-5-methyl-10,5-(iminomethano)-5H-dibenzo[a,d]cycloheptene], the “Percent of animals which survived” value in the data set with NMDA [4] (20 mg/kg) is 60%. In addition, the IC50 in [5] was 0.11 µM.

The values are drawn from patent US5508401A, “Substituted dibenzo[a,d]cycloheptene NMDA antagonists” (priority 1991, dated 1996).
